From patent publication US20240410877A1, “SYSTEMS AND METHODS FOR MIXED MULTIPLE CELL LINE SCREENING USING ENDOGENOUS SINGLE NUCLEOTIDE POLYMORPHISM (SNP)-BASED CELL LINE IDENTIFICATION” (University of Kentucky Research Foundation, priority 2023, published 2024)

How the values were obtained:
Assay type in all cases: cell-based, human
c-Myc = test: Western blot of c-Myc expression in liver cancer cells; conditions: C3A cells, 1 μM DEDA vs DMSO
Method: Cells were grown in six-well plates and lysed in 0.5 mL/well lysis buffer (50 mM HEPES, 100 mM NaCl, 2 mM EDTA, 1% glycerol, 50 mM NaF, 1 mM Na3VO4, 1% Triton X-100, with protease inhibitors). Cell lysates were separated by a 10% SDS-PAGE gel and transferred to an Immobilon PVDF membrane. The protein levels of c-Myc and GAPDH (loading control) were analyzed using antibodies that recognize c-Myc (Epitomics, #1472-1) and GAPDH (GeneTex, #627408).

SK-Hep1 = test: Cell proliferation assay of single cell line; conditions: SK-Hep1, 1 μM, 30 h
Method: (§1) The liver cancer cell lines, Huh7, C3A, PLC/PRF/5, SNU449, SNU475 and SK-Hep1, were purchased from the American Type Culture Collection (ATCC). The cells were cultured in DMEM (ATCC®30-2002) containing 10% (v/v) Fetal Bovine Serum (FBS) (Sigma F0926) and grown in an incubator at 37° C. with 5% CO2. The halogenated diarylacetylene, 4-((2,6-difluorophenyl) ethynyl)-N,N-dimethylaniline (DEDA), was synthesized and characterized as previously described.^18,19
(§2) For proliferation assays of single cell line, cells were seeded in 12-well plates (2×10^5 cells per well) and incubated overnight. The following day, DEDA (1 μM solution in DMSO) was added to each well with DMSO alone as a control. Each experiment was performed in quadruplicate. After 30 h, cells were analyzed under a reverse microscope. Cell viability and number were analyzed using the Vi-Cell XR Cell Viability Analyzer (Beckman Coulter).

SNU449 = test: Cell proliferation assay of single cell line; conditions: SNU449, 1 μM, 30 h
Method: as §1, §2

PLC/PRF/5 = test: Cell proliferation assay of single cell line; conditions: PLC/PRF/5, 1 μM, 30 h
Method: as §1, §2

Huh7 = test: Cell proliferation assay of single cell line; conditions: Huh7, 1 μM, 30 h
Method: as §1, §2

C3A = test: Cell proliferation assay of single cell line; conditions: 1 μM, 30 h
Method: as §1, §2

SNU475 = test: Cell proliferation assay of single cell line; conditions: SNU475, 1 μM, 30 h
Method: as §1, §2

In the case of `CN(C)c1ccc(C#Cc2c(F)cccc2F)cc1` [DEDA, 4-((2,6-difluorophenyl)ethynyl)-N,N-dimethylaniline], the c-Myc expression (c-Myc) is reported as “inhibited c-Myc expression”, the “sensitivity in cell proliferation assay” value (SK-Hep1) is reported as “resistant” and the “sensitivity in cell proliferation assay” value (SNU449) is reported as “resistant”. The “sensitivity in cell proliferation assay” value (PLC/PRF/5) was “resistant”, the “sensitivity in cell proliferation assay” value (Huh7) was “DEDA-sensitive” and the “sensitivity in cell proliferation assay” value (C3A) was “DEDA-sensitive”. For the same compound, the “sensitivity in cell proliferation assay” value (SNU475) was “resistant”.
